The source of these data is patent US20040167226A1, “Methods for the treatment of pain and traumatic injury using benzamides and compositions containing the same” (priority 2002, published 2004).

In data set [1] the test system is contused spinal cord injury. Put plainly: Spinal cord injury, contusion model, BBB locomotor score. The format is in vivo, Sprague-Dawley rats. As to conditions: SCI Study No. 4; 14 day contusion; rats; 20 mg/kg BID i.p., 75% PEG200 formulation. The procedure: Compound A was tested in both the rat dorsal hemisection (Guth, L. et al. (1980), J. Neurosurgery 52: 73-86) and contusion models (Scheff, S. W. (2003), J. Neurotrauma 20: 179-193) for evaluation of efficacy. These models are widely used in the field of spinal cord injury and replicate many of the pathological aspects found in humans who have sustained a spinal cord injury. Rats were subjected to an experimental spinal cord injury at T8, and were given Compound A shortly thereafter. Behavioral tests to assess the locomotion deficits were performed after the lesion. At the end of the experiment, animals were sacrificed and the spinal cord was collected for histopathological analysis. […] Histological assessment of the tissue at the site of injury was also made in both the drug treated and untreated group. […]
The BBB score is a 21-point scale representing 21 stages of locomotor recovery after spinal cord injury. The scale is based on unique combinations of scored behaviors, ranked according to time of appearance after injury. […]

Data set [2] is described as follows: Brain-blood distribution of Compound A in the rat. The format is in vivo. As to conditions: brain / whole blood, single po dose 30 mg/kg, n = 5, read-out: Brain/Blood Ratio (Mean ± SD). The procedure:
(§1) Blood-brain distribution of Compound A was assessed in the mouse, rat, and squirrel monkey by determining the concentrations of Compound A in blood and brain tissue at specific times post dose. Rats and mice received a single po dose of 30 mg/kg. The monkeys received a twice-daily 10 mg/kg po dose of Compound A for a total of 5 weeks prior to sacrifice. Brain to blood ratios for Compound A, as shown below in Table 4, show high penetration of the blood-brain barrier.

The nature of data set [3]: Brain-blood distribution of Compound A in the mouse. The format is in vivo. As to conditions: brain / whole blood, single po dose 30 mg/kg, n = 5, read-out: Brain/Blood Ratio (Mean ± SD). The procedure:
as §1

Consider `CC(=O)Nc1ccc(C(=O)NC(C)(C)C)cc1` [Compound A, N-tert-butyl-4-acetamidobenzamide], for which the “functional neurological outcome, BBB score” value in data set [1] is given as “no significant effects were observed”. For the same compound, the Kp at 0.5 h in data set [2] (0.5 h post-dose) was 0.71 ± 0.03; in data set [3] (0.5 h post-dose), 0.79 ± 0.05. Further, the Kp at 1 h in data set [2] (1.0 h post-dose) came to 0.66 ± 0.02; in data set [3] (1.0 h post-dose) it was 0.8 ± 0.05. Besides, the Kp at 2 h in data set [2] (2.0 h post-dose) was found to be 0.67 ± 0.03; in data set [3] (2.0 h post-dose) it was 0.76 ± 0.06.
